Counter-ions that a name gives are not always drawn.
How the values were obtained:
[1] = target: T1, Furin (108-574-Tev-Flag-His) enzyme (Homo sapiens, UniProt P09958); assay: Furin enzyme assay; assay type: biochemical
T1 construct: Furin (108-574-Tev-Flag-His) enzyme was expressed and purified from CHO cells; TEV cleavage site (C); FLAG (C); His (C); made in house; host or cells: CHO cells
Procedure: Reactions were performed in black 384-well polystyrene low volume plates (Greiner). Furin (108-574-Tev-Flag-His) enzyme was expressed and purified from CHO cells. Compounds of the invention were dissolved in DMSO (1.0 mM) and serially diluted 1 to 3 with DMSO through eleven dilutions to provide a final compound concentration range from 0.00017 to 10 μM. 0.05 μL of each concentration was transferred to the corresponding well of an assay plate, and then 5 μL of 40 pM furin enzyme in assay buffer (100 mM HEPES pH7.5, 1 mM CaCl2 and 0.005% Triton X-100) was added using a Multidrop Combi (Thermo) to the compound plates, and mixed by inversion. […] The plates were centrifuged at 500×g for 1 minute and incubated at room temperature for two hours. Enzyme inhibition is then quantified using an Envision instrument (PerkinElmer).
Data were analyzed using AbaseXE 7.3, utilizing a four-parameter curve fit equation. The following values were used to define limits and/or constraints for each of the four parameters: • Minimum—limit −10 to 10 • Maximum—90 to 110 • Slope—limit 0.5 to 2.0 • pXC50 confidence interval—10
Raw counts obtained from the respective plate reader (Perkin Elmer) were captured for data analysis. Curves were generated using the equation: Y=A+[(B−A)/(1+(10^C/x)^D)] • where: A=minimum response • B=maximum response • C=log 10*XC50 • D=slope factor • x=log 10 compound concentration [M]
The results were recorded as pXC50 values (−C in the above equation)

[2] = target: T2, furin (endogenous protease) in U20S cells (Homo sapiens, UniProt P09958); assay: Furin cell-based assay (image-based, Golgi-targeted GFP with BMP10 furin/PCSK cleavage site); settings: 24-hour incubation, read-out: furin golgi cell pXC50 (converted);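 note: Read-out is mean GFP fluorescence of Golgi puncta per cell by high-content imaging, retained when furin inhibited, over an eleven-point 0.00017–10 µM series, four-parameter fit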
T2 construct: the endogenous protease cleaves GFP; endogenous in cells; host or cells: U2OS cells transduced with a BacMam reporter
T2 sequence (P09958 108-794): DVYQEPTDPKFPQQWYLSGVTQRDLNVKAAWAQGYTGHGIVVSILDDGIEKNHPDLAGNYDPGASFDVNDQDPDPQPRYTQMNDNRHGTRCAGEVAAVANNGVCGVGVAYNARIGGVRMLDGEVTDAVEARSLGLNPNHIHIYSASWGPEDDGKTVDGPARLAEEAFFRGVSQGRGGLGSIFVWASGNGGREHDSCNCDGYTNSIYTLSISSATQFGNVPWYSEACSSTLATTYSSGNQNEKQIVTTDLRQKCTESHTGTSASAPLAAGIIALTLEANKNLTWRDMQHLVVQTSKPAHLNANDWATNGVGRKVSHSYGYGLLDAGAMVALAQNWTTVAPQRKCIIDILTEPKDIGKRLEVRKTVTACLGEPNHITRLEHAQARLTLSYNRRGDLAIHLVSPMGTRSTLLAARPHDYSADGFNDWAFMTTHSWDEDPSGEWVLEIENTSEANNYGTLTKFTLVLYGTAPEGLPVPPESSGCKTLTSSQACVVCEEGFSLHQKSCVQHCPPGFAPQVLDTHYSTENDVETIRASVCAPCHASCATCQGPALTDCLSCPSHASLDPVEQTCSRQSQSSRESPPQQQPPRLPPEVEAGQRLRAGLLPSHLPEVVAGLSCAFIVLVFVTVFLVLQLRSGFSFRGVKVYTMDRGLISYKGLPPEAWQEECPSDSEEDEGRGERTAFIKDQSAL

T1 sequence (P09958 108-574): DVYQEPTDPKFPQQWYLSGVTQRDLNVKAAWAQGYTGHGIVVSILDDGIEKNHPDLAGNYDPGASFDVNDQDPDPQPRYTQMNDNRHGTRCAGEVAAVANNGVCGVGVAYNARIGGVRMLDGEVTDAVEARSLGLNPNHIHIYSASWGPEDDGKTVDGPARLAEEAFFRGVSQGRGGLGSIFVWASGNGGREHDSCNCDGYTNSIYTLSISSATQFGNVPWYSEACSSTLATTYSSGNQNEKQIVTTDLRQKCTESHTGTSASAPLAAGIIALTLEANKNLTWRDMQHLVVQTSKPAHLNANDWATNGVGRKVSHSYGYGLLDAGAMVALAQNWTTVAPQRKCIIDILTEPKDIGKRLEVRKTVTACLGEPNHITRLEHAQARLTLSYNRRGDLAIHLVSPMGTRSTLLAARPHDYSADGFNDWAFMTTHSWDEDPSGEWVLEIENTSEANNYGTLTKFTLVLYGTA

SMILES	furin enzyme pIC50 [1]	EC50 [2]	IC50 ([1]; read-out: furin enzyme pIC50 (converted))
CC(=O)NCC1CCN(Cc2cc(Oc3ccc(N4CCN(CCc5nnn[nH]5)CC4)nc3)nc(-c3cc(Cl)cc(Cl)c3)c2)CC1 [Example 14, N-((1-((2-((6-(4-(2-(1H-Tetrazol-5-yl)ethyl)piperazin-1-yl)pyridin-3-yl)oxy)-6-(3,5-dichlorophenyl)pyridin-4-yl)methyl)piperidin-4-yl)methyl)acetamide, 4 hydrochloride]	9.5	631 nM	–
CC(=O)NCC1CCN(Cc2cc(Oc3ccc(N4CCN(CC[S+](C)[O-])CC4)nc3)nc(-c3cc(Cl)cc(Cl)c3)c2)CC1 (stereo not drawn) [Example 15, N-((1-((2-(3,5-Dichlorophenyl)-6-((6-(4-(2-(methylsulfinyl)ethyl)piperazin-1-yl)pyridin-3-yl)oxy)pyridin-4-yl)methyl)piperidin-4-yl)methyl)acetamide, 4 hydrochloride]	8.5	25.1 nM	–
CC(=O)NCC1CCN(Cc2cc(Oc3ccc(N4CCN(C(C)CCS(C)(=O)=O)CC4)nc3)nc(-c3cc(Cl)cc(Cl)c3)c2)CC1 (stereo not drawn) [Example 16]	9	1.26 nM	–
CNC(=O)NCC1CCN(Cc2cc(Oc3cnc(N4CCN(C(C)CCO)CC4)nc3)nc(-c3cc(Cl)cc(Cl)c3)c2)CC1 (stereo not drawn) [Example 20, 1-((1-((2-(3,5-dichlorophenyl)-6-((2-(4-(4-hydroxybutan-2-yl)piperazin-1-yl)pyrimidin-5-yl)oxy)pyridin-4-yl)methyl)piperidin-4-yl)methyl)-3-methylurea]	9.6	1 nM	–
O=C(O)CC1CCN(Cc2cc(Oc3cnc(N4CCN(C5CC(O)C5)CC4)nc3)nc(-c3cc(Cl)cc(Cl)c3)c2)CC1 (stereo not drawn) [Example 22, 2-(1-((2-(3,5-dichlorophenyl)-6-((2-(4-(3-hydroxycyclobutyl)piperazin-1-yl)pyrimidin-5-yl)oxy)pyridin-4-yl)methyl)piperidin-4-yl)acetic acid]	9.5	10 nM	–
C[C@]1(O)C[C@@H](N2CCN(c3ncc(Oc4cc(CN5CCC(CC(=O)O)CC5)cc(-c5cc(Cl)cc(Cl)c5)n4)cn3)CC2)C1 [Example 24, 2-(1-((2-(3,5-dichlorophenyl)-6-((2-(4-((1s,3s)-3-hydroxy-3-methylcyclobutyl)piperazin-1-yl)pyrimidin-5-yl)oxy)pyridin-4-yl)methyl)piperidin-4-yl)acetic acid]	8.6	12.6 nM	–
C[C@]1(O)C[C@H](N2CCN(c3ncc(Oc4cc(CN5CCC(CC(=O)O)CC5)cc(-c5cc(Cl)cc(Cl)c5)n4)cn3)CC2)C1 [Example 25, 2-(1-((2-(3,5-dichlorophenyl)-6-((2-(4-((1r,3r)-3-hydroxy-3-methylcyclobutyl)piperazin-1-yl)pyrimidin-5-yl)oxy)pyridin-4-yl)methyl)piperidin-4-yl)acetic acid]	8.2	12.6 nM	–
CC(=O)NCC1CCN(Cc2cc(Oc3ccc(N4CCN(CCN)CC4)nc3)nc(-c3cc(Cl)cc(Cl)c3)c2)CC1 [Example 28, N-((1-((2-((6-(4-(2-Aminoethyl)piperazin-1-yl)pyridin-3-yl)oxy)-6-(3,5-dichlorophenyl)pyridin-4-yl)methyl)piperidin-4-yl)methyl)acetamide]	9	2 nM	–
CC(=O)NCC1CCN(Cc2cc(Oc3ccc(N4CCN(CC(O)CCO)CC4)nc3)nc(-c3cc(Cl)cc(Cl)c3)c2)CC1 (stereo not drawn) [Example 29, N-((1-((2-(3,5-Dichlorophenyl)-6-((6-(4-(2,4-dihydroxybutyl)piperazin-1-yl)pyridin-3-yl)oxy)pyridin-4-yl)methyl)piperidin-4-yl)methyl)acetamide]	9	< 0.794 nM	–
CC(=O)NCC1CCN(Cc2cc(Oc3ccc(N4CCN(CCP(=O)(O)O)CC4)nc3)nc(-c3cc(Cl)cc(Cl)c3)c2)CC1 [Example 30, (2-(4-(5-((4-((4-(Acetamidomethyl)piperidin-1-yl)methyl)-6-(3,5-dichlorophenyl)pyridin-2-yl)oxy)pyridin-2-yl)piperazin-1-yl)ethyl)phosphonic acid]	9.1	501 nM	–
CC(=O)NCC1CCN(Cc2cc(Oc3ccc(N4CCN(CCOC(N)=O)CC4)nc3)nc(-c3cc(Cl)cc(Cl)c3)c2)CC1 [Example 31, 2-(4-(5-((4-((4-(Acetamidomethyl)piperidin-1-yl)methyl)-6-(3,5-dichlorophenyl)pyridin-2-yl)oxy)pyridin-2-yl)piperazin-1-yl)ethyl carbamate]	9.1	6.31 nM	–
CC(=O)NCC1CCN(Cc2cc(Oc3ccc(N4CCN(CCN(C)S(C)(=O)=O)CC4)nc3)nc(-c3cc(Cl)cc(Cl)c3)c2)CC1 [Example 32, N-((1-((2-(3,5-dichlorophenyl)-6-((6-(4-(2-(N-methylmethylsulfonamido)ethyl)piperazin-1-yl)pyridin-3-yl)oxy)pyridin-4-yl)methyl)piperidin-4-yl)methyl)acetamide]	8.7	10 nM	–
CC(=O)NCC1CCN(Cc2cc(Oc3ccc(N4CCN(C(=O)CCC(=O)O)CC4)nc3)nc(-c3cc(Cl)cc(Cl)c3)c2)CC1 [Example 33, 4-(4-(5-((4-((4-(Acetamidomethyl)piperidin-1-yl)methyl)-6-(3,5-dichlorophenyl)pyridin-2-yl)oxy)pyridin-2-yl)piperazin-1-yl)-4-oxobutanoic acid]	8.5	39.8 nM	–
CC(=O)NCC1CCN(Cc2cc(Oc3ccc(N4CCN(CC5(CO)CC5)CC4)nc3)nc(-c3cc(Cl)cc(Cl)c3)c2)CC1 [Example 34, N-((1-((2-(3,5-Dichlorophenyl)-6-((6-(4-((1-(hydroxymethyl)cyclopropyl)methyl)piperazin-1-yl)pyridin-3-yl)oxy)pyridin-4-yl)methyl)piperidin-4-yl)methyl)acetamide]	9.4	5.01 nM	–

The remaining lines, values ahead:

furin enzyme pIC50 [1]	EC50 [2]	IC50 ([1]; read-out: furin enzyme pIC50 (converted))	SMILES
–	2 nM	0.0316 nM	CNC(=O)NCC1CCN(Cc2cc(Oc3cnc(N4CCN(CCC(C)[S+](C)[O-])CC4)nc3)nc(-c3cc(Cl)cc(Cl)c3)c2)CC1 (stereo not drawn) [Example 17, 1-((1-((2-(3,5-dichlorophenyl)-6-((2-(4-(3-(methylsulfinyl)butyl)piperazin-1-yl)pyrimidin-5-yl)oxy)pyridin-4-yl)methyl)piperidin-4-yl)methyl)-3-methylurea]
10.7	0.501 nM	–	CNC(=O)NCC1CCN(Cc2cc(Oc3cnc(N4CCN(C(C)CCS(C)(=O)=O)CC4)nc3)nc(-c3cc(Cl)cc(Cl)c3)c2)CC1 (stereo not drawn) [Example 18, 1-((1-((2-(3,5-dichlorophenyl)-6-((2-(4-(4-(methylsulfonyl)butan-2-yl)piperazin-1-yl)pyrimidin-5-yl)oxy)pyridin-4-yl)methyl)piperidin-4-yl)methyl)-3-methylurea]
10.2	0.398 nM	–	CC(=O)NCC1CCN(Cc2cc(Oc3cnc(N4CCN(C(C)CCS(C)(=O)=O)CC4)nc3)nc(-c3cc(Cl)cc(Cl)c3)c2)CC1 (stereo not drawn) [Example 19, N-((1-((2-(3,5-dichlorophenyl)-6-((2-(4-(4-(methylsulfonyl)butan-2-yl)piperazin-1-yl)pyrimidin-5-yl)oxy)pyridin-4-yl)methyl)piperidin-4-yl)methyl)acetamide]
9.9	6.31 nM	–	CC(CO)N1CCN(c2ncc(Oc3cc(CN4CCC(CC(=O)O)CC4)cc(-c4cc(Cl)cc(Cl)c4)n3)cn2)CC1 (stereo not drawn) [Example 21, 2-(1-((2-(3,5-dichlorophenyl)-6-((2-(4-(1-hydroxypropan-2-yl)piperazin-1-yl)pyrimidin-5-yl)oxy)pyridin-4-yl)methyl)piperidin-4-yl)acetic acid]
8.3	15.8 nM	–	O=C(O)CC1CCN(Cc2cc(Oc3cnc(N4CCN(C(CO)CO)CC4)nc3)nc(-c3cc(Cl)cc(Cl)c3)c2)CC1 [Example 23, 2-(1-((2-(3,5-dichlorophenyl)-6-((2-(4-(1,3-dihydroxypropan-2-yl)piperazin-1-yl)pyrimidin-5-yl)oxy)pyridin-4-yl)methyl)piperidin-4-yl)acetic acid]
9.9	1.58 nM	–	CC(=O)NCC1CCN(Cc2cc(Oc3ccc(N4CCN([C@H]5C[C@H](NS(C)(=O)=O)C5)CC4)nc3)nc(-c3cc(Cl)cc(Cl)c3)c2)CC1 [Example 26, N-((1-((2-(3,5-Dichlorophenyl)-6-((6-(4-((trans)-3-(methylsulfonamido)cyclobutyl)piperazin-1-yl)pyridin-3-yl)oxy)pyridin-4-yl)methyl)piperidin-4-yl)methyl)acetamide]
9.6	3.16 nM	–	CC(=O)NCC1CCN(Cc2cc(Oc3ccc(N4CCN([C@H]5C[C@@H](NS(C)(=O)=O)C5)CC4)nc3)nc(-c3cc(Cl)cc(Cl)c3)c2)CC1 [Example 27, N-((1-((2-(3,5-Dichlorophenyl)-6-((6-(4-((cis)-3-(methylsulfonamido)cyclobutyl)piperazin-1-yl)pyridin-3-yl)oxy)pyridin-4-yl)methyl)piperidin-4-yl)methyl)acetamide]

— patent US11773078B2, “Furin inhibitors” (Glaxosmithkline Intellectual Property Development Limited, priority 2018, dated 2023)
